# Reference: publication PMC7167990, “Therapeutic Effects of Atranorin towards the Proliferation of Babesia and Theileria Parasites” (Pathogens, 2020)
# Tests used:
# [1] = tested on: B. divergens; experiment: In vitro growth inhibition, Babesia fluorescent (SYBR Green I) assay; assay type: cell-based; conditions: 4 days culture, mean of triplicate experiments
# Experimental: (§1) Babesia parasite was incubated and maintained at 37 °C in a humidifying chamber under 5% CO2, 5% O2, and 90% N2 atmosphere using a microaerophilic stationary-phase culture for conducting the in vitro experiment. Briefly, Germany strain Babesia divergens was cultured in cattle RBCs in Roswell Park Memorial Institute 1640 (RPMI 1640; Sigma-Aldrich, St. Louis, MO, USA) medium replenished with 40% cattle serum, while culture medium 199 (M199; Sigma-Aldrich) was utilized for the Argentina strain B. bigemina and Texas strain B. bovis, and T. equi USDA strain cultured in cattle RBCs supplemented with 40% cattle serum and horse RBCs maintained in hypoxanthine (MP Biomedicals, Santa Ana, CA, USA; final concentration 13.6 μg/mL) and 40% horse serum, respectively. GIT medium complemented with 40% horse serum was used as a growth medium for the USDA strain of B. caballi cultured in horse RBCs. To ensure free-bacterial contamination, amphotericin B (0.15 μg/mL) (Sigma-Aldrich), streptomycin (60 U/mL) and penicillin G (60 U/mL) were added to all medium.
# (§2) The Babesia fluorescent assay was carried out on the in vitro culture as previously reported elsewhere to assess the growth of the inhibitory effectiveness of ATR and the combination treatment with DA, CF, and AV. Briefly, in three separate trials, using two-fold dilution, different concentrations of ATR, DA, CF, and AV were prepared in the culture medium and added in 96-well plates in triplicate with 1% parasitemia for T. equi, B. divergens and B. caballi at 5% HCT, while for B. bigemina and B. bovis using 2.5% HCT. The drug combined efficacy was conducted at the same time with the single-treatment assay in accordance with the Chou–Talalay method. […] On day four of culture, an aliquot (100 µL) of lysis buffer mixed with 0.2μL/mL SG1 was added per well; subsequently, it was covered with aluminum foil to prevent exposure to light. After incubation for 6-h at 37 °C, fluorescence readings were acquired on a spectrofluorimeter (Fluoroskan Ascent, Thermo Fisher Scientific, Oceanside, CA, USA) with a 485 nm excitation wavelength and a 518 nm emission wavelength.
# (§3) The IC50 values of ATR, DA, CF, and AV were established from the in vitro growth inhibition by nonlinear regression curve fit on a GraphPad Prism (GraphPad Software Inc., San Diego, CA, USA). […] The significant variations (p < 0.05) among group mean values on parasitemia and one-way ANOVA Tukey’s test in GraphPad Prism version 5.0 was used to analyze hematology profiles in mice infected with B. microti.
# [2] = tested on: T. equi; experiment: as above; assay type: cell-based; conditions: 4 days culture, mean of triplicate experiments
# Experimental: as §1, §2, §3
# [3] = tested on: B. caballi; experiment: as above; assay type: cell-based; conditions: 4 days culture, mean of triplicate experiments
# Experimental: as §1, §2, §3
# [4] = tested on: B. bigemina; experiment: as above; assay type: cell-based; conditions: 4 days culture, mean of triplicate experiments
# Experimental: as §1, §2, §3
# [5] = tested on: B. bovis; experiment: as above; assay type: cell-based; conditions: 4 days culture, mean of triplicate experiments
# Experimental: as §1, §2, §3
# [6] = tested on: NIH/3T3 cells; experiment: Cytotoxicity assay (CCK-8 cell viability); assay type: cell-based, mouse
# Experimental: (§4) Cultures of human foreskin fibroblast (HFF; HFF-1 ATCC® SCRC-1041™), Madin–Darby bovine kidney (MDBK; ECACC) and mouse embryonic fibroblast (NIH/3T3; ATCC® CRL-1658™) cells were retrieved from −80 °C stock and cultured continuously at 37 °C under atmosphere 5% CO2 in our laboratory. The NIH/3T3 and HFFs cells were maintained in Dulbecco Modified Eagle’s Medium (DMEM; Gibco, Grand Island, NY, USA), while MDBK cell line grown in Minimum Essential Medium Eagle (MEM; Gibco). Each medium was treated with 0.5% penicillin/streptomycin (Gibco), 10% inactivated fetal bovine serum and 2 mM glutamine. Every 72 to 96 h, the medium was replaced, and once 80% confluence was reached, the cell collection was performed by sub-culture protocol. To confirm the absence of mycoplasma contamination, 4,6-diamidino-2-phenylindole dihydrochloride stain (Sigma-Aldrich) was used.
# (§5) The cell viability test was conducted in a 96-well plate as described elsewhere. Briefly, an aliquot of (100 µL) cells was implanted at a concentration of 5 × 10^4 cells/mL in DMEM or MEM with fetal bovine serum and incubated overnight under atmosphere 5% CO2 at 37 °C for attachment. Using two-fold dilutions, aliquots (10 µL) of drugs were added in triplicate per well to attain final concentrations of 50 to 1000 µM and further incubated for 24 h. The positive control wells containing cells mixed with the medium in 0.4% DMSO, whereas the negative control wells containing culture medium only. After a 24-h incubation, Cell Counting Kits-8 (CCK-8, 10 µL) was added to each well and then plate incubation was conducted for an additional 3 h and a microplate reader was used to assess the absorbance at 450 nm.
# [7] = tested on: B. microti; conditions: B. microti-infected BALB/c mice, days 4-8 p.i.
# [8] = Hematology parameters (HGB, HCT, RBCs) in B. microti-infected treated mice; assay type: in vivo, BALB/c mice; parameters: HGB Mean: unit not given beside the values; RBCs Mean: unit not given here; conditions: DA 25, AV 20, ATR 25, ATR 12.5+DA 12.5, ATR 12.5+AV 10 mg/kg BW, days 4-8 p.i.
# [9] = tested on: HFFs; experiment: Cytotoxicity assay (CCK-8 cell viability); assay type: cell-based, human
# Experimental: as §4, §5
smiles,measurement,setting,value
"CC(=O)NCC(=O)O.CC(=O)NCC(=O)O.N=C(N)c1ccc(N=NNc2ccc(C(=N)N)cc2)cc1 [DA, diminazene aceturate]",IC50,[1],430 ± 50 nM
same,IC50,[2],710 ± 50 nM
same,IC50,[3],20 nM
same,IC50,[4],680 ± 90 nM
same,IC50,[5],350 ± 60 nM
same,Selective Index NIH/3T3,[6]; EC50 NIH/3T3 / IC50 B. bigemina,˃147.1
same,Selective Index NIH/3T3,[6]; EC50 NIH/3T3 / IC50 B. bovis,˃285.7
same,Selective Index NIH/3T3,[6]; EC50 NIH/3T3 / IC50 B. caballi,˃5000
same,Selective Index NIH/3T3,[6]; EC50 NIH/3T3 / IC50 B. divergens,˃232.5
same,Selective Index NIH/3T3,[6]; EC50 NIH/3T3 / IC50 T. equi,˃140.8
same,EC50,"[6]; NIH/3T3 cells, 24 h, CCK-8, read-out: EC50 NIH/3T3",> 100000 nM
same,first day on which parasitemia was not detected by microscopy,"[7]; DA 25, AV 20, ATR 25, ATR 12.5+DA 12.5, ATR 12.5+AV 10 mg/kg BW",16 day p.i.
same,peak parasitemia level,"[7]; DA at 25 mg/kg, peak on day 10",7.94%
same,HCT Mean,[8]; day 0,46.48%
same,HGB Mean,[8]; day 0,15.64
same,RBCs Mean,[8]; day 0,990.625
same,HCT Mean,[8]; day 4,46.18%
same,HGB Mean,[8]; day 4,13.64
same,RBCs Mean,[8]; day 4,954.75
same,HCT Mean,[8]; day 8,46.18%
same,HGB Mean,[8]; day 8,14.72
same,RBCs Mean,[8]; day 8,888.25
same,HCT Mean,[8]; day 12,44.1%
same,HGB Mean,[8]; day 12,13.6
same,RBCs Mean,[8]; day 12,860
same,HCT Mean,[8]; day 16,45.52%
same,HGB Mean,[8]; day 16,14.46
same,RBCs Mean,[8]; day 16,870.25
same,HCT Mean,[8]; day 20,44.14%
same,HGB Mean,[8]; day 20,15.02
same,RBCs Mean,[8]; day 20,880
same,HCT Mean,[8]; day 24,46%
same,HGB Mean,[8]; day 24,15.2
same,RBCs Mean,[8]; day 24,888
same,HCT Mean,[8]; day 28,47%
same,HGB Mean,[8]; day 28,15.64
same,RBCs Mean,[8]; day 28,984.75
same,HCT Mean,[8]; day 32,49%
same,HGB Mean,[8]; day 32,15.94
same,RBCs Mean,[8]; day 32,990.625
same,HCT Mean,[8]; day 36,49%
same,HGB Mean,[8]; day 36,16.64
same,RBCs Mean,[8]; day 36,997.625
same,Selective Index HFFs,[9]; EC50 HFFs / IC50 B. bigemina,˃147.1
same,Selective Index HFFs,[9]; EC50 HFFs / IC50 B. bovis,˃285.7
same,Selective Index HFFs,[9]; EC50 HFFs / IC50 B. caballi,˃5000
same,Selective Index HFFs,[9]; EC50 HFFs / IC50 B. divergens,˃232.5
same,Selective Index HFFs,[9]; EC50 HFFs / IC50 T. equi,˃140.8
same,EC50,"[9]; HFFs, 24 h, CCK-8",> 100000 nM
